Results: US12338253B2, “Nitrogen-containing polycyclic fused ring compound, pharmaceutical composition thereof, preparation method therefor and use thereof” (APPLIED PHARMACEUTICAL SCIENCE, INC., priority 2019, dated 2025)

Experiments:
TT Cell = assay: TT cell activity test (CelltiterGlo, 72 h); type: cell-based, human; conditions: for IC50: Homo sapiens, TT cell line, 72 h, CTG; for inhibitory activity on TT cells compared with cabozantinib: comparison in words
Description: 2.3 Data Processing % Inhibition (inhibition rate)=100*(HC−test compound well reading)/(HC−LC) • High control (HC, reading control without inhibition): 0.5% DMSO • Low control (LC, control with compound inhibition): 1 μM CEP-32496
The IC50 values were calculated using GraphPad Prism 6 software. Y=Bottom+(Top−Bottom)/(1+10^((Log IC50−X)*HillSlope)); • X: log of cpd concentration; • Y: % inhibition; • Top and Bottom: plateaus in same units as Y; • Log IC50: same log units as X; and • HillSlope: slope factor The Cell Results are Shown in Table 5: […]

RET G810R = RET G810R (Homo sapiens (Human), UniProt P07949, G810R); assay: HTRF kinase activity test, RET G810R; type: biochemical; conditions: for IC50: HTRF KinEASE-TK; for inhibitory activity on RET G810R compared with cabozantinib and selpercatinib (LOXO-292): comparison in words
Chain of RET G810R (P07949 29-1114 G810R): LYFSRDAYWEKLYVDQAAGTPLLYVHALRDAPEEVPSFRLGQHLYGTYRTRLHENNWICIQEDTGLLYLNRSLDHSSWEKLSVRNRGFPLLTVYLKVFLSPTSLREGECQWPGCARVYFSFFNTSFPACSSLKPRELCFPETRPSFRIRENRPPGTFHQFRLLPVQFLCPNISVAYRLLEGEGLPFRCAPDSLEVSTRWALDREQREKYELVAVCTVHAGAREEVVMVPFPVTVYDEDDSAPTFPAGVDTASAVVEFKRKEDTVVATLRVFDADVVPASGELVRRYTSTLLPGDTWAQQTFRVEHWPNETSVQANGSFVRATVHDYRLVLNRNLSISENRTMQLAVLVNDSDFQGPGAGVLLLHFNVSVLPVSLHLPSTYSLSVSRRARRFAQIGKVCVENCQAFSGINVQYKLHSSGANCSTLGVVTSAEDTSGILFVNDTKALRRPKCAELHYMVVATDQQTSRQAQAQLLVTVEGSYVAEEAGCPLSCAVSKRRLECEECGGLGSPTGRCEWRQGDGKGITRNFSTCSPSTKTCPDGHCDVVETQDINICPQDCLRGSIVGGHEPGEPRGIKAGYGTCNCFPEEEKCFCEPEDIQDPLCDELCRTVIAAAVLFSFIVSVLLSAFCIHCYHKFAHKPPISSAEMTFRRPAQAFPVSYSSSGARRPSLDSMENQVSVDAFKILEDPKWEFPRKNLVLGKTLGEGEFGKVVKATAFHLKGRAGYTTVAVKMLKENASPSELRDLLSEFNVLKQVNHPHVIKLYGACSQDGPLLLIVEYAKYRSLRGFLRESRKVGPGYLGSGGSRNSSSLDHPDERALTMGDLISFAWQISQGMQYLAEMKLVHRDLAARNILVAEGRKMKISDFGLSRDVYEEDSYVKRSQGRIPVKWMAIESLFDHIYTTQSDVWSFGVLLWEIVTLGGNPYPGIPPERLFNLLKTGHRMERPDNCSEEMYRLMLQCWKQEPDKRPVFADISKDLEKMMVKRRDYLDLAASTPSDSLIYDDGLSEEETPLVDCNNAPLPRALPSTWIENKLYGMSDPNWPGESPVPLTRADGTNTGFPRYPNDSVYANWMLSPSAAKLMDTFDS

Row | Compound | IC50 (TT Cell) [nM] | inhibitory activity on TT cells compared with cabozantinib (TT Cell) | IC50 (RET G810R) [nM] | inhibitory activity on RET G810R compared with cabozantinib and selpercatinib (LOXO-292) (RET G810R)
1 | COc1cc2nccc(Oc3ccc(NC(=O)C4(C(=O)Nc5ccc(F)cc5)CC4)cc3)c2cc1OC [Cabozantinib, reference compound] | 143 | – | – | –
2 | COc1ccc(CN2C3CC2CN(c2ccc(-c4cc(Br)cn5nc6[nH]ncc6c45)cn2)C3)cn1 [Compound 2] | 42.2 | significantly better than that of cabozantinib | – | –
3 | COc1ccc(CN2C3CC2CN(c2ccc(-c4cc(OCc5ccccc5)cn5nc6[nH]ncc6c45)cn2)C3)cn1 [Compound 3, 6-(benzyloxy)-4-(6-(6-((6-methoxypyridin-3-yl)methyl)-3,6-diazabicyclo[3.3.1]heptan-3-yl)pyridin-3-yl)-1H-pyrazolo[3′,4′:3,4]pyrazolo[1,5-a]pyridine] | 32.8 | significantly better than that of cabozantinib | 16.2 | significantly better than that of cabozantinib and selpercatinib (LOXO-292)
4 | COc1ccc(CN2C3CC2CN(c2ccc(-c4cc(C#N)cn5nc6[nH]ncc6c45)cn2)C3)cn1 [Compound 5, 4-(6-(6-((6-methoxypyridin-3-yl)methyl)-3,6-diazabicyclo[3.3.1]heptan-3-yl)pyridin-3-yl)-1H-pyrazolo[3′,4′:3,4]pyrazolo[1,5-a]pyridine-6-carbonitrile] | 11.8 | significantly better than that of cabozantinib | 38.4 | significantly better than that of cabozantinib and selpercatinib (LOXO-292)
5 | COc1ccc(CN2C3CC2CN(c2ccc(-c4cc(N)cn5nc6[nH]ncc6c45)cn2)C3)cn1 [Compound 6, 4-(6-(6-((6-methoxypyridin-3-yl)methyl)-3,6-diazabicyclo[3.3.1]heptan-3-yl)pyridin-3-yl)-1H-pyrazolo[3′,4′:3,4]pyrazolo[1,5-a]pyridin-6-amine] | 19.4 | significantly better than that of cabozantinib | – | –
6 | COc1ccc(CN2C3CC2CN(c2ccc(-c4cc(OCC(C)(C)O)cn5nc6[nH]ncc6c45)cn2)C3)cn1 [Compound 8, 1-((4-(6-(6-((6-methoxypyridin-3-yl)methyl)-3,6-diazabicyclo[3.3.1]heptan-3-yl)pyridin-3-yl)-1H-pyrazolo[3′,4′:3,4]pyrazolo[1,5-a]pyridin-6-yl)oxy)-2-methylpropan-2-ol] | 14.4 | significantly better than that of cabozantinib | – | –
7 | COc1ccc(CN2C3CC2CN(c2ccc(-c4cc(OCCO)cn5nc6[nH]ncc6c45)cn2)C3)cn1 [Compound 10] | 12.3 | significantly better than that of cabozantinib | 3.8 | significantly better than that of cabozantinib and selpercatinib (LOXO-292)
8 | CCCCOc1cc(-c2ccc(N3CC4CC(C3)N4Cc3ccc(OC)nc3)nc2)c2c3cn[nH]c3nn2c1 [Compound 11] | 16.8 | significantly better than that of cabozantinib | 10.1 | significantly better than that of cabozantinib and selpercatinib (LOXO-292)
9 | COc1ccc(CN2C3CC2CN(c2ccc(-c4cc(OCCCCF)cn5nc6[nH]ncc6c45)cn2)C3)cn1 [Compound 13] | 10.7 | significantly better than that of cabozantinib | 3.1 | significantly better than that of cabozantinib and selpercatinib (LOXO-292)
10 | COc1ccc(CN2C3CC2CN(c2ccc(-c4cc(OCCCl)cn5nc6[nH]ncc6c45)cn2)C3)cn1 [Compound 14, 6-(2-chloroethoxy)-4-(6-(6-((6-methoxypyridin-3-yl)methyl)-3,6-diazabicyclo[3.3.1]heptan-3-yl)pyridin-3-yl)-1H-pyrazolo[3′,4′:3,4]pyrazolo[1,5-a]pyridine] | – | – | 2.2 | significantly better than that of cabozantinib and selpercatinib (LOXO-292)
11 | COc1ccc(CN2C3CC2CN(c2ccc(-c4cc(OCCBr)cn5nc6[nH]ncc6c45)cn2)C3)cn1 [Compound 15, 6-(2-bromoethoxy)-4-(6-(6-((6-methoxypyridin-3-yl)methyl)-3,6-diazabicyclo[3.3.1]heptan-3-yl)pyridin-3-yl)-1H-pyrazolo[3′,4′:3,4]pyrazolo[1,5-a]pyridine] | – | – | 7.9 | significantly better than that of cabozantinib and selpercatinib (LOXO-292)
12 | COc1ccc(CN2C3CC2CN(c2ccc(-c4cc(OC[C@@H]5CNCCO5)cn5nc6[nH]ncc6c45)cn2)C3)cn1 [Compound 17] | 11.3 | – | – | –
13 | CCN(CC)C(=O)N1CCN(c2ccc(-c3cc(OCCF)cn4nc5[nH]ncc5c34)cn2)CC1 [Compound 18, N,N-diethyl-4-(5-(6-(2-fluoroethoxy)-1H-pyrazolo[3′,4′:3,4]pyrazolo[1,5-a]pyridin-4-yl)pyridin-2-yl)piperazine-1-carboxamide] | 78.2 | significantly better than that of cabozantinib | 18.9 | significantly better than that of cabozantinib and selpercatinib (LOXO-292)
14 | O=C(Cc1ccccn1)N1CCN(c2ccc(-c3cc(OCCF)cn4nc5[nH]ncc5c34)cn2)CC1 [Compound 19, 1-(4-(5-(6-(2-fluoroethoxy)-1H-pyrazolo[3′,4′:3,4]pyrazolo[1,5-a]pyridin-4-yl)pyridin-2-yl)piperazin-1-yl)-2-(pyridin-2-yl)ethan-1-one] | 31.2 | significantly better than that of cabozantinib | 4.8 | significantly better than that of cabozantinib and selpercatinib (LOXO-292)
15 | O=C([C@H](O)c1ccccc1)N1CCN(c2ccc(-c3cc(OCCF)cn4nc5[nH]ncc5c34)cn2)CC1 [Compound 20, (R)-1-(4-(5-(6-(2-fluoroethoxy)-1H-pyrazolo[3′,4′:3,4]pyrazolo[1,5-a]pyridin-4-yl)pyridin-2-yl)piperazin-1-yl)-2-hydroxy-2-phenylethan-1-one] | 27.8 | significantly better than that of cabozantinib | 1.6 | significantly better than that of cabozantinib and selpercatinib (LOXO-292)
16 | CO[C@@H](C(=O)N1CCN(c2ccc(-c3cc(OCCF)cn4nc5[nH]ncc5c34)cn2)CC1)c1ccccc1 [Compound 21, (R)-1-(4-(5-(6-(2-fluoroethoxy)-1H-pyrazolo[3′,4′:3,4]pyrazolo[1,5-a]pyridin-4-yl)pyridin-2-yl)piperazin-1-yl)-2-methoxy-2-phenylethan-1-one] | 15.8 | significantly better than that of cabozantinib | 0.6 | significantly better than that of cabozantinib and selpercatinib (LOXO-292)
17 | COc1ccc(C(=O)N2CCN(c3ccc(-c4cc(OCCF)cn5nc6[nH]ncc6c45)cn3)CC2)cn1 [Compound 22, (4-(5-(6-(2-fluoroethoxy)-1H-pyrazolo[3′,4′:3,4]pyrazolo[1,5-a]pyridin-4-yl)pyridin-2-yl)piperazin-1-yl)(6-methoxypyridin-3-yl)methanone] | 39.5 | significantly better than that of cabozantinib | 1.7 | significantly better than that of cabozantinib and selpercatinib (LOXO-292)
18 | COc1ccc(CN2C3CC2CN(c2ccc(-c4cc(OCCOCC5CC5)cn5nc6[nH]ncc6c45)cn2)C3)cn1 [Compound 28, 6-(2-(cyclopropylmethoxy)ethoxy)-4-(6-(6-((6-methoxypyridin-3-yl)methyl)-3,6-diazabicyclo[3.3.1]heptan-3-yl)pyridin-3-yl)-1H-pyrazolo[3′,4′:3,4]pyrazolo[1,5-a]pyridine] | 64.3 | significantly better than that of cabozantinib | – | –
19 | COc1ccc(CN2C3CC2CN(c2ccc(-c4cc(OC(C)C)cn5nc6[nH]ncc6c45)cn2)C3)cn1 [Compound 29] | 60.8 | significantly better than that of cabozantinib | – | –
20 | COc1ccc(CN2C3CC2CN(c2ccc(-c4cc(OC(F)F)cn5nc6[nH]ncc6c45)cn2)C3)cn1 [Compound 33, 6-(difluoromethoxy)-4-(6-(6-((6-methoxypyridin-3-yl)methyl)-3,6-diazabicyclo[3.3.1]heptan-3-yl)pyridin-3-yl)-1H-pyrazolo[3′,4′:3,4]pyrazolo[1,5-a]pyridine] | 350 | – | – | –
21 | COc1ccc(CN2C3CC2CN(c2ccc(-c4cc(OCCOC5CC5)cn5nc6[nH]ncc6c45)cn2)C3)cn1 [Compound 34] | 81.8 | significantly better than that of cabozantinib | – | –
22 | CCOc1cc(-c2ccc(N3CC4CC(C3)N4Cc3ccc(OC)nc3)nc2)c2c3c(C)n[nH]c3nn2c1 [Compound 35] | 296 | – | – | –
23 | COc1ccc(CN2C3CC2CN(c2ccc(-c4cc(OCC5CC5)cn5nc6[nH]ncc6c45)cn2)C3)cn1 [Compound 37, 6-(cyclopropylmethoxy)-4-(6-(6-((6-methoxypyridin-3-yl)methyl)-3,6-diazabicyclo[3.3.1]heptan-3-yl)pyridin-3-yl)-1H-pyrazolo[3′,4′:3,4]pyrazolo[1,5-a]pyridine] | 29.2 | significantly better than that of cabozantinib | – | –
